Broadly, the IC50 is the concentration that inhibits the measured activity by half.

This is an account of results in ChEMBL document CHEMBL1154483, “Mechanistic aspects of benzothiazepines: a class of antiarrhythmic drugs” (Eur J Med Chem, 2009).

The test in a line: Inhibition of calcium channel.

As for `COc1ccc([C@@H]2Sc3ccccc3N(CCN(C)C)C(=O)[C@@H]2OC(C)=O)cc1` [DILTIAZEM], the IC50 stood at 337 nM. Regarding `COc1ccc([C@@H]2Sc3ccccc3N(CCN(C)CCc3ccc(OC)c(OC)c3)C(=O)[C@@H]2OC(C)=O)cc1`, the IC50 was determined as 6.5 nM.
